Data as given in ChEMBL document CHEMBL6182913, “Design of Potent Small-Molecule Stimulator of Interferon Gene Inhibitor and Stimulator of Interferon Gene Mutant-Specific Degrader” (J Med Chem, 2025).
Active and inactive are the calls of the source. The rule behind the calls is not given here.

Assays:
[1] = target: T1, Stimulator of interferon genes protein (Homo sapiens, UniProt Q86WV6); test: Inhibition of STING activation in human THP1-Blue ISG cells assessed as decrease in cGAMP-induced STING phosphorylation at 0.1 to 1 uM preincubated with compound for 6 hrs followed by cGAMP addition and measured after 3 hrs by Western blotting analysis; type: cell-based; settings: dose 0.1-1 µM, time 9.0 hrs
Target sequence in this assay (Q86WV6 whole entry): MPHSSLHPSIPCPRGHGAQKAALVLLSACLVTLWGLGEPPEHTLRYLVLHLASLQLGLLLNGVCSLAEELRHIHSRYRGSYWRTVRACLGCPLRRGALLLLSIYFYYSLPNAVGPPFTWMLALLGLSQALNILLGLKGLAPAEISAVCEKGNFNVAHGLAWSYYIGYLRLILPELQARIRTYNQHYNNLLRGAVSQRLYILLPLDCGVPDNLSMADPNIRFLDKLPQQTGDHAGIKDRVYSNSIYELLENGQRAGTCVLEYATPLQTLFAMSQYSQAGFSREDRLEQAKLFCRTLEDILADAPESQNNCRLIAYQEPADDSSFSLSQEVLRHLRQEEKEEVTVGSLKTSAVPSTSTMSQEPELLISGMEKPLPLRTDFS

[2] = target: T1, Stimulator of interferon genes protein; test: Inhibition of STING activation in human THP1-Blue ISG cells assessed as inhibition of c-GAMP-induced STING dimerization at 0.1 to 1 uM preincubated with compound for 6 hrs followed by cGAMP addition and measured after 3 hrs by Western blotting analysis; type: cell-based; settings: dose 0.1-1 µM, time 9.0 hrs
Target sequence in this assay (Q86WV6 whole entry): as above

[3] = system: Stimulator of interferon genes protein (Homo sapiens), Q86WV6 [UNDEFINED MUTATION]; test: Induction of STING M155 mutant degradation in human THP-1 cells by measuring maximum efficacy at 0.01 to 10 uM incubated for 24 hrs by Western blotting analysis relative to control; type: cell-based; settings: dose 0.01-10 µM
[4] = Half life in mouse at 20 mg/kg, po by LC-MS/MS analysis; type: ADME, organism-based; settings: in vivo
[5] = Apparent oral clearance in mouse at 20 mg/kg, po by LC-MS/MS analysis; type: ADME, organism-based; settings: in vivo
[6] = system: Stimulator of interferon genes protein (Homo sapiens), Q86WV6 [UNDEFINED MUTATION]; test: Induction of STING S154 mutant degradation in human THP-1 cells at 1 uM incubated for 12 hrs by Western blotting analysis; type: cell-based
[7] = target: T1, Stimulator of interferon genes protein; test: Inhibition of cGAMP-induced STING R232 mutant transfected human THP-1 cells preincubated with compound for 6 hrs followed by cGAMP addition and measured after 18 hrs by QUANTI-Luc based microplate reader analysis; type: cell-based
Target sequence in this assay (Q86WV6 whole entry, looked up, change not shown): as the sequence (Q86WV6 whole entry) above

[8] = target: T2, Stimulator of interferon genes protein (Homo sapiens, UniProt Q86WV6, G230A/R293Q/R71H); test: Inhibition of cGAMP-induced STING HAQ mutant transfected in human THP1-Blue ISG cells preincubated with compound for 6 hrs followed by cGAMP addition and measured after 18 hrs by QUANTI-Blue based microplate reader analysis; type: cell-based
[9] = Cmax in mouse at 20 mg/kg, po by LC-MS/MS analysis; type: ADME, organism-based; settings: in vivo, po, 20 mg/kg
[10] = target: T1, Stimulator of interferon genes protein; test: Induction of STING M155 mutant degradation in human THP-1 cells incubated for 24 hrs by Western blotting analysis; type: cell-based
Target sequence in this assay (Q86WV6 whole entry, looked up, change not shown): as the sequence (Q86WV6 whole entry) above

[11] = target: T1, Stimulator of interferon genes protein; test: Inhibition of STING activation in human THP1-Blue ISG cells assessed as inhibition of c-GAMP-induced STING oligomerization at 0.1 to 1 uM preincubated with compound for 6 hrs followed by cGAMP addition and measured after 3 hrs by Western blotting analysis; type: cell-based; settings: dose 0.1-1 µM, time 9.0 hrs
Target sequence in this assay (Q86WV6 whole entry): as above

[12] = target: T2, Stimulator of interferon genes protein; test: Inhibition of diABZI-induced STING HAQ mutant transfected in human THP1-Blue ISG cells preincubated with compound for 6 hrs followed by diABZI addition and measured after 18 hrs by QUANTI-Blue based microplate reader analysis; type: cell-based
[13] = target: T3, Stimulator of interferon genes protein (Mus musculus) (UniProt Q3TBT3); test: In vivo inhibition of cGAMP-induced STING activation in autoimmune disease female C57BL/6 mouse model assessed as decrease in cGAMP-induced serum INF-beta level at 10 mg/kg, sc pretreated with compound for 2 hrs followed by cGAMP addition and measured after 3 hrs by ELISA; type: functional, organism-based
T3 sequence (whole entry): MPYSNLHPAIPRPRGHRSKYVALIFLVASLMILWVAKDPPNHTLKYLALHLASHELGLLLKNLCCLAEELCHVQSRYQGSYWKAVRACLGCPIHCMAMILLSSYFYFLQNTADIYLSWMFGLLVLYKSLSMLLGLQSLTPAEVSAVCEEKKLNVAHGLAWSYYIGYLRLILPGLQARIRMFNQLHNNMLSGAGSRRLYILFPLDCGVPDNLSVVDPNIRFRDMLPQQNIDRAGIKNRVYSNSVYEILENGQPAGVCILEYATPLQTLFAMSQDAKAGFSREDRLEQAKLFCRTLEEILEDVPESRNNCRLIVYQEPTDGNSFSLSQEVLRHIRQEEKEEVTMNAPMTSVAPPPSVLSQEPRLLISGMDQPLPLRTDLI

[14] = system: Stimulator of interferon genes protein (Homo sapiens), Q86WV6 [UNDEFINED MUTATION]; test: Induction of STING S154 mutant degradation in human THP-1 cells by measuring maximum efficacy at 0.01 to 10 uM incubated for 24 hrs by Western blotting analysis relative to control; type: cell-based; settings: dose 0.01-10 µM
[15] = system: Stimulator of interferon genes protein (Homo sapiens), Q86WV6 [UNDEFINED MUTATION]; test: Induction of STING M155 mutant degradation in human THP-1 cells at 0.5 uM preincubated with rapamycin for 2 hrs followed by compound addition and measured after 14 hrs by Western blotting analysis; type: cell-based
[16] = target: T1, Stimulator of interferon genes protein; test: Induction of STING S154 mutant degradation in human THP-1 cells incubated for 24 hrs by Western blotting analysis; type: cell-based
Target sequence in this assay (Q86WV6 whole entry, looked up, change not shown): as the sequence (Q86WV6 whole entry) above

[17] = system: Stimulator of interferon genes protein (Homo sapiens), Q86WV6 [UNDEFINED MUTATION]; test: Induction of STING M155 mutant degradation in human THP-1 cells at 5 uM incubated for 24 hrs by global proteomics analysis; type: cell-based
[18] = system: Stimulator of interferon genes protein (Homo sapiens), Q86WV6 [UNDEFINED MUTATION]; test: Induction of STING M155 mutant degradation in human THP-1 cells at 1 uM incubated for 12 hrs by Western blotting analysis; type: cell-based
[19] = system: Stimulator of interferon genes protein (Homo sapiens), Q86WV6 [UNDEFINED MUTATION]; test: Induction of STING M155 mutant degradation in human THP-1 cells at 1 uM preincubated with MG132 for 2 hrs followed by compound addition and measured after 22 hrs by Western blotting analysis; type: cell-based
[20] = system: Stimulator of interferon genes protein (Homo sapiens), Q86WV6 [UNDEFINED MUTATION]; test: Induction of STING M155 mutant degradation in human THP-1 cells at 1 uM preincubated with Baf A1 for 2 hrs followed by compound addition and measured after 22 hrs by Western blotting analysis; type: cell-based
[21] = target: T1, Stimulator of interferon genes protein; test: Inhibition of STING activation in human THP1-Blue ISG cells assessed as reduction in STING dimer level at 0.1 to 1 uM incubated for 9 hrs by Western blotting analysis; type: cell-based; settings: dose 0.1-1 µM
Target sequence in this assay (Q86WV6 whole entry): as the sequence (Q86WV6 whole entry) above

[22] = target: T3, Stimulator of interferon genes protein (Mus musculus); test: Inhibition of STING in mouse BMDM cells assessed as inhibition of cGAMP-induced CXCL-10 release at 0.05 to 0.5 uM pretreated with compound for 6 hrs followed by cGAMP addition and measured after 18 hrs by ELISA; type: cell-based; settings: dose 0.05-0.5 µM, time 24.0 hrs
[23] = AUC in mouse at 20 mg/kg, po by LC-MS/MS analysis; type: ADME, organism-based; settings: in vivo
[24] = Metabolic stability in human plasma assessed as half life in presence of NADPH by LC-MS/MS analysis; type: ADME, cell-free
[25] = system: Stimulator of interferon genes protein (Homo sapiens), Q86WV6 [UNDEFINED MUTATION]; test: Induction of STING M155 mutant degradation in human THP-1 cells at 1 uM preincubated with MLN4924 for 2 hrs followed by compound addition and measured after 22 hrs by Western blotting analysis; type: cell-based
[26] = Metabolic stability in human liver microsomes assessed as half life at 10 uM in presence of NADPH by LC-MS/MS analysis; type: ADME, Microsome
[27] = system: Stimulator of interferon genes protein (Homo sapiens), Q86WV6 [UNDEFINED MUTATION]; test: Induction of STING S154 mutant degradation in human THP-1 cells at 1 uM incubated for 48 hrs by Western blotting analysis; type: cell-based
[28] = Cytotoxicity against human THP1-Blue ISG cells assessed as inhibition of cell growth at 10 uM incubated for 24 hrs by MTS assay relative to control; type: toxicity, cell-based
[29] = target: T1, Stimulator of interferon genes protein; test: Inhibition of cGAMP-induced STING S154 mutant transfected in human THP-1 cells preincubated with compound for 6 hrs followed by cGAMP addition and measured after 18 hrs by QUANTI-Luc based microplate reader analysis; type: cell-based
Target sequence in this assay (Q86WV6 whole entry, looked up, change not shown): as the sequence (Q86WV6 whole entry) above

Chain of Stimulator of interferon genes protein (Homo sapiens), Q86WV6 [UNDEFINED MUTATION] (Q86WV6 whole entry, looked up, change not shown): as the sequence (Q86WV6 whole entry) above
T2 sequence (Q86WV6 whole entry R71H/G230A/R293Q): as the sequence (Q86WV6 whole entry) above, with R71H, G230A, R293Q counted along it

inhibition [1]: Active
inhibition [2]: Active
Emax [3]: 92%
half-life [4]: 3.3 h
CL/F [5]: 163 mL/min/kg
Activity [6]: Active
IC50 [7]: 30 nM
IC50 [8]: 110 nM
Cmax [9]: 293 ng/mL
Cmax ([9]; read-out: Cmax): 200 nM
DC50 [10]: 760 nM
inhibition [11]: Active
IC50 [12]: 120 nM
inhibition [13]: Active
Emax [14]: 89%
Activity [15]: Active
DC50 [16]: 310 nM
Activity [17]: Active
Activity [18]: Active
Activity [19]: Active
Activity [20]: inactive
inhibition [21]: Active
inhibition [22]: Active
AUC [23]: 2020 ng·h/mL
half-life [24]: > 4 h
Activity [25]: Active
half-life at 10 µM [26]: > 1 h
IC50 [29]: 280 nM
SMILES: COc1ccc2c(c1)C(=O)N(c1ccc(C(C)(C)C)c(F)c1)C(c1cc3cc(-c4ccc(C(=O)Nc5ccc(O)c(NS(C)(=O)=O)c5)cc4)ccc3o1)C2C(N)=O (stereo not given)
Activity [27]: Active; Compound Showed Maximum Degradation
inhibition at 24 h, 10 µM [28]: 34.4%
